Laboratory results taken from patent publication US20240350493A1 (Kadmon Corporation, LLC, priority 2022, published 2024).
Entries after “also recorded” stand apart in the source; their conditions may differ. Read-outs that look alike come from different tables or passages of the source. Marks after values point to notes of the source that are not given here.

Assays:
[1] = test system: human peripheral blood lymphocytes (HPBL); assay: in vitro chromosome aberration assay; format: cell-based
CYP1A2 = CYP1A2 (Homo sapiens, UniProt P05177); assay: enzyme inhibition, in vitro; format: in vitro ADME
BCRP = BCRP (Homo sapiens, UniProt Q9UNQ0); assay: transporter inhibition, in vitro; format: in vitro ADME; details: at clinically relevant concentrations
healthy male subjects = assay: phase I drug-drug interaction study, safety and tolerability (Example 1); format: in vivo, human
Description: (§1) This was a single center, non-randomized, DDI study in 35 (Part 1) and 38 (Part 2) healthy males. The key inclusion criterion was males aged 18 to 55 years (inclusive). […] In Part 2, co-administration with omeprazole was studied. The study design is illustrated in FIG. 1.
(§2) At least a 2-to 8-day washout occurred between each period to account for a minimum of 5 half-lives of the active moieties dosed in the preceding period.
Safety and tolerability of belumosudil was the secondary endpoint of the study and was evaluated by AEs, vital signs, physical examinations, electrocardiograms (ECGs), and clinical laboratory tests. All subjects who received at least one dose of belumosudil or perpetrator compound were included in the safety population.

human serum albumin = human serum albumin (Homo sapiens, UniProt P02768); assay: protein binding in vitro; format: in vitro ADME
CYP2D6 = CYP2D6 (Homo sapiens, UniProt P10635); assay: incubations with recombinant enzymes; format: in vitro ADME
CYP2C19 = CYP2C19 (Homo sapiens, UniProt P33261); assay: enzyme inhibition, in vitro; format: in vitro ADME
[2] = phase I two-part drug-drug interaction study, plasma pharmacokinetics (Example 1); format: in vivo, human; details: for Cmax / Tmax / AUC from 0 to 24 h / AUC(0-inf) / AUC(0-t) / half-life: male, human, plasma, oral; for Tmax: read-out: Tmax, median (range)
Description: The secondary objective was to provide additional information on the safety and tolerability of this dose regimen in healthy males.
as §1, §2
Blood samples were collected into 6 mL K,EDTA tubes and were processed within 30 minutes of collection. The resultant plasma was then frozen within 90 minutes of collection and stored at […] until shipment to the bioanalytical laboratory.
For each comparison, PK parameters were natural log transformed and analyzed using mixed effect modeling with treatment included as a fixed effect and subject as a random effect. Adjusted geometric mean ratios (GMRs) and corresponding 90% CIs were calculated.

[3] = 200 mg belumosudil single dose + itraconazole
[4] = 200 mg belumosudil single dose + rabeprazole
[5] = 200 mg belumosudil single dose + rifampicin
[6] = 200 mg belumosudil single dose alone
[7] = coadministration of rabeprazole

Sequence of CYP2C19 (P33261 whole entry): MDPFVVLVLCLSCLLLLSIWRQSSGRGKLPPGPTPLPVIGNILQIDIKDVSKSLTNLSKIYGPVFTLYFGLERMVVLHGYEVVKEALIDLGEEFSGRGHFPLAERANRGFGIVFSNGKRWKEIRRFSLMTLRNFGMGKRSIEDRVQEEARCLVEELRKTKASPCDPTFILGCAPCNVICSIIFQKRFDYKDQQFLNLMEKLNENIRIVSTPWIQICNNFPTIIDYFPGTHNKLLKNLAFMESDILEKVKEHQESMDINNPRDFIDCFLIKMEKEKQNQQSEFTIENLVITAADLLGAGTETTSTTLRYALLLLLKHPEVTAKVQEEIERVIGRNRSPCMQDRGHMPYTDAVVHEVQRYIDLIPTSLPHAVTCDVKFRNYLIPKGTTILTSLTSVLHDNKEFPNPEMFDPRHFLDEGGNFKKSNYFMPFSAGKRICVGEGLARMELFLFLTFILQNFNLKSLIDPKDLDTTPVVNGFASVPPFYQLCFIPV
Sequence of CYP2D6 (P10635 whole entry): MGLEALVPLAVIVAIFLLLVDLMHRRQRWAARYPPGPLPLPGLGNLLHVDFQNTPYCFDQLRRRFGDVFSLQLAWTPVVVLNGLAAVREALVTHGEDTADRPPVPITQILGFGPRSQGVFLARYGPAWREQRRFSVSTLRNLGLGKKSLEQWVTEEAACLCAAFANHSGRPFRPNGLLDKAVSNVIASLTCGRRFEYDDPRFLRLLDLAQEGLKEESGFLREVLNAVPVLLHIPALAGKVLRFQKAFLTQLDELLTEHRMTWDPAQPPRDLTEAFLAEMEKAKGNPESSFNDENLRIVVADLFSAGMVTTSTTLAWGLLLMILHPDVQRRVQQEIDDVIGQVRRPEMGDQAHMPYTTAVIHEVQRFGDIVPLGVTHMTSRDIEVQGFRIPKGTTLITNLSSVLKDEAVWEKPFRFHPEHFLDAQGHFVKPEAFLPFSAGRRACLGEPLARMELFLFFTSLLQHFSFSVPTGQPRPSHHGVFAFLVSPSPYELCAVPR
Sequence of CYP1A2 (P05177 whole entry): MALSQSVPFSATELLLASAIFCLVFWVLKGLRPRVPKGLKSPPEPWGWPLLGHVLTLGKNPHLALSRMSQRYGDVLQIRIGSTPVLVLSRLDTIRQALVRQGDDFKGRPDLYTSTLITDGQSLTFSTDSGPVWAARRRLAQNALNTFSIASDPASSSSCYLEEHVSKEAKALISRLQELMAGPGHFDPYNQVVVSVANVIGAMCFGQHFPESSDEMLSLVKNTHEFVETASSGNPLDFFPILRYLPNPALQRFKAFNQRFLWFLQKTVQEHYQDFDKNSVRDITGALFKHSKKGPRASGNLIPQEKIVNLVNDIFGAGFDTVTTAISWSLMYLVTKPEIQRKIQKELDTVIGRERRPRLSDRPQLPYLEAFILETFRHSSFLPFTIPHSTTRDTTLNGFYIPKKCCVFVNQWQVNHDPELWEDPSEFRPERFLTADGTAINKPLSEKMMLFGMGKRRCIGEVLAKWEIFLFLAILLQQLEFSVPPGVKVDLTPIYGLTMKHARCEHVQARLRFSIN
Sequence of BCRP (Q9UNQ0 whole entry): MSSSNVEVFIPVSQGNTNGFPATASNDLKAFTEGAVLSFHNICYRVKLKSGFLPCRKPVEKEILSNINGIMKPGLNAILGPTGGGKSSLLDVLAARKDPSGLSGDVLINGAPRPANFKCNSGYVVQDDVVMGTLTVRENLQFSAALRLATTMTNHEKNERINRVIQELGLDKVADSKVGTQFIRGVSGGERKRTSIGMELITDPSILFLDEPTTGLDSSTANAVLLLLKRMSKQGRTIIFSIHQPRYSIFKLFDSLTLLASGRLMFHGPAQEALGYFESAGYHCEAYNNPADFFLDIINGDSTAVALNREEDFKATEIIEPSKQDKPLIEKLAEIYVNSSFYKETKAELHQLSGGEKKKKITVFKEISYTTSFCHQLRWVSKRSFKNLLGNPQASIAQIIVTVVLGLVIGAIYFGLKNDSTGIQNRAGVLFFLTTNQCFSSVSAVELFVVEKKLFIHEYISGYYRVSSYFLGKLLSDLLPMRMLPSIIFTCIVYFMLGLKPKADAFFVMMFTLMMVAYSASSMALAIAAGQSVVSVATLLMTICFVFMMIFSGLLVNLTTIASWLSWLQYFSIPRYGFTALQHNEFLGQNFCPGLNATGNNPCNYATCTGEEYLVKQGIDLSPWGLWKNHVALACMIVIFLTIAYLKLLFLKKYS
Sequence of human serum albumin (P02768 25-609): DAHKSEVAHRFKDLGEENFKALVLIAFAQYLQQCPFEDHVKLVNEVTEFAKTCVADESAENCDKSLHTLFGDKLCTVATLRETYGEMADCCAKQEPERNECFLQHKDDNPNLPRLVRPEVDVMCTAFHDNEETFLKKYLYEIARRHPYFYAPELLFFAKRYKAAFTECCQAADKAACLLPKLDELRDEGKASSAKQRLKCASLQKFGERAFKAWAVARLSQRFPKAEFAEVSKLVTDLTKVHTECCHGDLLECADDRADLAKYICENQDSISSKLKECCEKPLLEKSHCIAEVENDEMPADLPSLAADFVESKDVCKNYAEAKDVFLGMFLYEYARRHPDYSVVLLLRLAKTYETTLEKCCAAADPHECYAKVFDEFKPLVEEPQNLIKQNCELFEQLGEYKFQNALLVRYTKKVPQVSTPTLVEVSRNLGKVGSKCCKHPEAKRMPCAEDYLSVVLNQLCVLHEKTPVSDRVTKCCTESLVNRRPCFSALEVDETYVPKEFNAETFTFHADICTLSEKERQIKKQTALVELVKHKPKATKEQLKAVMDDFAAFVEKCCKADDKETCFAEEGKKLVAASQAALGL

In the case of `CC(C)NC(=O)COc1cccc(-c2nc(Nc3ccc4[nH]ncc4c3)c3ccccc3n2)c1` [Belumosudil, 2-{3-[4-(1H-indazol-5-ylamino)-2-quinazolinyl]phenoxy}-N-(propan-2-yl) acetamide], the genotoxicity [1] is reported as “not genotoxic”, the CYP1A2 inhibition (CYP1A2) is reported as “inhibitor” and the BCRP inhibition (BCRP) is reported as “inhibits”. The “treatment-emergent AEs (TEAEs) reported” value (healthy male subjects; Periods 1, 2, and 4) was 33, the “AEs considered possibly related to belumosudil” value (healthy male subjects; all mild: abdominal distension, hot flush, fatigue) was “Three” and the “serious AE (SAE)” value (healthy male subjects; ankle fracture after belumosudil+itraconazole, considered unrelated) was “One”. The “subjects reporting gastrointestinal disorders” value (healthy male subjects; belumosudil alone) was 3 subjects, the “subjects reporting gastrointestinal disorders” value (healthy male subjects; belumosudil+itraconazole) was 5 subjects and the “deaths or AEs leading to subject withdrawal” value (healthy male subjects; in vivo) was “no deaths or AEs leading to subject withdrawal”. The safety profile (healthy male subjects; with and without perpetrator compounds) was “unremarkable; also recorded: safe, and no notable adverse events were reported”, the “binding to human serum albumin” value (human serum albumin) was 99.9% and the “share of belumosudil metabolism” value (CYP2D6) was 21.7%. For the same molecule, the CYP2C19 inhibition (CYP2C19) was “inhibitor”, the “CL/F, arithmetic mean (SD)” value [2, 3] was 318 (117) ^b mL/min and the “CL/F, geometric mean (geometric CV %)” value [2, 3] was 298 (38.1) ^b; mL/min. For the same molecule, the “CL/F, arithmetic mean (SD)” value [2, 4] was 2480 (2410) ^d mL/min, the “CL/F, geometric mean (geometric CV %)” value [2, 4] was 1980 (65.8) ^d; mL/min and the “CL/F, arithmetic mean (SD)” value [2, 5] was 1400 (450) ^c mL/min. The “CL/F, geometric mean (geometric CV %)” value [2, 5] was 1330 (34.5) ^c; mL/min, the “CL/F, arithmetic mean (SD)” value [2, 6] was 385 (116) ^a mL/min and the “CL/F, geometric mean (geometric CV %)” value [2, 6] was 367 (33.3) ^a; mL/min. The “change in belumosudil exposure” value ([2]; coadministration of itraconazole) was “no clinically meaningful effect; also recorded: No clinically relevant change”, the “decrease in AUC0-24 vs belumosudil alone” value ([2]; coadministration of omeprazole) was 53% and the “decrease in AUC vs belumosudil alone” value ([2]; coadministration of omeprazole) was 47%. The “decrease in Cmax (first dose) vs belumosudil alone” value ([2]; coadministration of omeprazole) was 68%, the “decrease in AUC vs belumosudil alone” value [2, 7] was 80% and the “decrease in AUCinf vs belumosudil alone” value [2, 7] was ~80%. For the same molecule, the “decrease in AUClast vs belumosudil alone” value [2, 7] was ~82%, the “decrease in AUCinf vs belumosudil alone” value ([2]; coadministration of rifampicin) was ~72% and the “decrease in AUClast vs belumosudil alone” value ([2]; coadministration of rifampicin) was ~72%. For the same molecule, the “decrease in AUC vs belumosudil alone” value ([2]; coadministration of rifampin) was 72%, the Cmax ([2]; 200 mg belumosudil BID + omeprazole, first dose, read-out: Cmax, arithmetic mean (SD)) was 893 ng/mL and the Cmax ([2]; 200 mg belumosudil BID + omeprazole, first dose, read-out: Cmax, geometric mean (geometric CV %)) was 575 ng/mL. The Tmax ([2]; 200 mg belumosudil BID + omeprazole, first dose) was 4 h, the Cmax ([2]; 200 mg belumosudil BID + omeprazole, second dose, read-out: Cmax, arithmetic mean (SD)) was 1050 ng/mL and the Cmax ([2]; 200 mg belumosudil BID + omeprazole, second dose, read-out: Cmax, geometric mean (geometric CV %)) was 903 ng/mL. The Tmax ([2]; 200 mg belumosudil BID + omeprazole, second dose) was 17 h, the AUC from 0 to 24 h ([2]; 200 mg belumosudil BID + omeprazole, read-out: AUC0-24, arithmetic mean (SD)) was 9100 ng·h/mL and the AUC from 0 to 24 h ([2]; 200 mg belumosudil BID + omeprazole, read-out: AUC0-24, geometric mean (geometric CV %)) was 7970 ng·h/mL. It also gave an AUC(0-inf) ([2]; 200 mg belumosudil BID + omeprazole, read-out: AUCinf, arithmetic mean (SD)) of 11200 ng·h/mL, an AUC(0-inf) ([2]; 200 mg belumosudil BID + omeprazole, read-out: AUCinf, geometric mean (geometric CV %)) of 9880 ng·h/mL and an AUC(0-t) ([2]; 200 mg belumosudil BID + omeprazole, read-out: AUClast, arithmetic mean (SD)) of 10900 ng·h/mL. For the same molecule, the AUC(0-t) ([2]; 200 mg belumosudil BID + omeprazole, read-out: AUClast, geometric mean (geometric CV %)) was 9680 ng·h/mL, the half-life ([2]; 200 mg belumosudil BID + omeprazole, read-out: t1/2, arithmetic mean (SD) (converted)) was 6.55 h and the half-life ([2]; 200 mg belumosudil BID + omeprazole, read-out: t1/2, geometric mean (geometric CV %) (converted)) was 6.16 h. The AUC from 0 to 24 h ([2]; 200 mg belumosudil single dose + itraconazole, read-out: AUC0-24, arithmetic mean (SD)) was 11000 ng·h/mL, the AUC from 0 to 24 h ([2]; 200 mg belumosudil single dose + itraconazole, read-out: AUC0-24, geometric mean (geometric CV %)) was 10400 ng·h/mL and the AUC(0-inf) ([2]; 200 mg belumosudil single dose + itraconazole, read-out: AUCinf, arithmetic mean (SD)) was 11900 ng·h/mL. The AUC(0-inf) ([2]; 200 mg belumosudil single dose + itraconazole, read-out: AUCinf, geometric mean (geometric CV %)) was 11200 ng·h/mL, the AUC(0-t) ([2]; 200 mg belumosudil single dose + itraconazole, read-out: AUClast, arithmetic mean (SD)) was 11600 ng·h/mL and the AUC(0-t) ([2]; 200 mg belumosudil single dose + itraconazole, read-out: AUClast, geometric mean (geometric CV %)) was 10900 ng·h/mL. The Cmax ([2]; 200 mg belumosudil single dose + itraconazole, read-out: Cmax, arithmetic mean (SD)) was 2230 ng/mL.
